Assay results as given in PMC10120551, “Novel Glu-based pyrazolo[3,4-d]pyrimidine analogues: design, synthesis and biological evaluation as DHFR and TS dual inhibitors” (Journal of Enzyme Inhibition and Medicinal Chemistry, 2023).

Assays:
[1] = test system: NCI-H522; assay: cells; conditions: Homo sapiens
[2] = test system: KM12; assay: cells; conditions: Homo sapiens
[3] = test system: MCF7; assay: NCI one-dose screen (SRB); type: cell-based, human; conditions: MCF7, Breast; 10 µM single dose
Method: (§1) The growth percentage (G%) and cell viability of the herein target compounds 6a–l, 7a,b, and 9a–c have been screened towards a full panel of 59 cancer cells at NCI’s Developmental Therapeutics Program (NCI-DTP, MD, USA)[21]. The submitted analogues were initially examined for preliminary in vitro anticancer activity using sulforhodamine B (SRB) assay at 10 µM as a single dose to evaluate cell growth and viability according to the procedure of Drug Evaluation Branch[22]^,[23].
(§2) Different types of tumours – colon, NSCLC, leukaemia, CNS, renal, breast, ovarian, melanoma, and prostate cancers – were investigated as a full panel of 59 cell lines, and the attained results are cited in Figures S1–S17 (see Supplementary Material) where the value recorded is the growth relative to that of both the negative control and zero-time number of cells in which both growth inhibition (GI%; 0–100%) and lethality (L%; 0–100%) percentages can be identified. The growth inhibition means percentages (MGI%) for the examined target analogues towards the different treated 59 cancer cells were presented in Figure 2.
(§3) The designed analogues were submitted to NCI-Chemotherapeutic Agents Repository (MD, USA) for screening on a panel of 59 cancer cell lines. All compounds were initially examined at 10 µM concentration (Single-Dose Screen), and then the most efficient analogue 6i was screened further at 0.01–100 µM (Five-Dose Screen). The screening procedures were performed according to NCI-Drug Evaluation Branch protocol using SRB protein assay, as described previously[21]^,[66]. The experimental procedures were detailed in the Supporting Information.

[4] = test system: HS 578 T; assay: NCI one-dose screen (SRB); type: cell-based, human; conditions: Breast cancer, 10 µM single dose
Method: as §1, §2, §3

[5] = test system: NCI/ADR-RES; assay: NCI one-dose screen (SRB); type: cell-based, human; conditions: Ovarian cancer, 10 µM single dose
Method: as §1, §2, §3

[6] = test system: SW-620; assay: NCI one-dose screen (SRB); type: cell-based, human; conditions: SW-620, Colon cancer; 10 µM single dose
Method: as §1, §2, §3

[7] = test system: M14; assay: NCI one-dose screen (SRB); type: cell-based, human; conditions: M14, Melanoma; 10 µM single dose
Method: as §1, §2, §3

[8] = test system: NCI-H23; assay: NCI one-dose screen (SRB); type: cell-based, human; conditions: NCI-H23, NSCLC; 10 µM single dose
Method: as §1, §2, §3

[9] = test system: 786-0; assay: NCI one-dose screen (SRB); type: cell-based, human; conditions: 786-0, Renal; 10 µM single dose
Method: as §1, §2, §3

[10] = test system: NCI-H226; assay: NCI one-dose screen (SRB); type: cell-based, human; conditions: NCI-H226, NSCLC; 10 µM single dose
Method: as §1, §2, §3

[11] = test system: SF-539; assay: NCI one-dose screen (SRB); type: cell-based, human; conditions: SF-539, CNS cancer; 10 µM single dose
Method: as §1, §2, §3

[12] = test system: SF-295; assay: NCI one-dose screen (SRB); type: cell-based, human; conditions: SF-295, CNS; 10 µM single dose
Method: as §1, §2, §3

[13] = test system: CCRF-CEM; assay: NCI one-dose screen (SRB); type: cell-based, human; conditions: Leukaemia, 10 µM single dose
Method: as §1, §2, §3

[14] = test system: HCT-116; assay: NCI one-dose screen (SRB); type: cell-based, human; conditions: HCT-116, Colon cancer; 10 µM single dose
Method: as §1, §2, §3

[15] = test system: SNB-19; assay: NCI one-dose screen (SRB); type: cell-based, human; conditions: SNB-19, CNS cancer; 10 µM single dose
Method: as §1, §2, §3

[16] = test system: MOLT-4; assay: NCI one-dose screen (SRB); type: cell-based, human; conditions: MOLT-4, Leukaemia; 10 µM single dose
Method: as §1, §2, §3

[17] = test system: PC-3; assay: NCI one-dose screen (SRB); type: cell-based, human; conditions: PC-3, Prostate; 10 µM single dose
Method: as §1, §2, §3

[18] = test system: BT-549; assay: NCI one-dose screen (SRB); type: cell-based, human; conditions: BT-549, Breast cancer; 10 µM single dose
Method: as §1, §2, §3

[19] = test system: U251; assay: NCI one-dose screen (SRB); type: cell-based, human; conditions: U251, CNS cancer; 10 µM single dose
Method: as §1, §2, §3

[20] = test system: OVCAR-4; assay: NCI one-dose screen (SRB); type: cell-based, human; conditions: OVCAR-4, Ovarian cancer; 10 µM single dose
Method: as §1, §2, §3

[21] = test system: A549/ATCC; assay: NCI one-dose screen (SRB); type: cell-based, human; conditions: NSCLC, 10 µM single dose
Method: as §1, §2, §3

[22] = test system: SN12C; assay: NCI one-dose screen (SRB); type: cell-based, human; conditions: Renal cancer, 10 µM single dose
Method: as §1, §2, §3

[23] = test system: SK-MEL-28; assay: NCI one-dose screen (SRB); type: cell-based, human; conditions: SK-MEL-28, Melanoma; 10 µM single dose
Method: as §1, §2, §3

[24] = test system: MDA-MB-468; assay: NCI one-dose screen (SRB); type: cell-based, human; conditions: MDA-MB-468, Breast; 10 µM single dose
Method: as §1, §2, §3

[25] = test system: HOP-62; assay: NCI one-dose screen (SRB); type: cell-based, human; conditions: HOP-62, NSCLC; 10 µM single dose
Method: as §1, §2, §3

[26] = test system: EKVX; assay: NCI one-dose screen (SRB); type: cell-based, human; conditions: NSCLC, 10 µM single dose
Method: as §1, §2, §3

[27] = test system: DU-145; assay: NCI one-dose screen (SRB); type: cell-based, human; conditions: DU-145, Prostate; 10 µM single dose
Method: as §1, §2, §3

[28] = test system: HOP-92; assay: NCI one-dose screen (SRB); type: cell-based, human; conditions: HOP-92, NSCLC; 10 µM single dose
Method: as §1, §2, §3

[29] = test system: SK-MEL-5; assay: NCI one-dose screen (SRB); type: cell-based, human; conditions: SK-MEL-5, Melanoma; 10 µM single dose
Method: as §1, §2, §3

[30] = test system: full NCI 59 cell panel
[31] = test system: HS 578 T; assay: cells; conditions: Homo sapiens

CCOC(=O)CC[C@H](NC(=O)c1ccc(NC(=O)Cn2cnc3c(c(C)nn3-c3ccc(Br)cc3)c2=O)cc1)C(=O)OCC [Compound 6i]
GI50 ([1]; NCI-H522): 17.1 µM | CC50 ([1]; NCI-H522, read-out: LC50): 85 µM | GI50 ([2]; KM12): 16.1 µM | CC50 ([2]; KM12, read-out: LC50): > 100 µM | GI% [3]: 97.72% | GI% [4]: 75.80% | GI% [5]: 51.78% | GI% [6]: 62.17% | GI% [7]: 74.15% | GI% [8]: 87.19% | GI% [9]: 82.93% | L% (lethality) [10]: 37.32% | GI% [11]: 54.23% | GI% [12]: 89.78% | GI% [13]: 70.05% | GI% [14]: 70.04% | GI% [15]: 61.23% | GI% [16]: 52.51% | GI% [17]: 91.71% | GI% [18]: 66.64% | GI% [19]: 53.30% | GI% [20]: 66.09% | GI% [21]: 71.36% | GI% [22]: 57.69% | GI% [23]: 75.54% | GI% [24]: 92.44% | L% (lethality) [25]: 8.41% | GI% [26]: 78.12% | GI% [27]: 85.62% | GI% [28]: 78.29% | L% (lethality) [29]: 1.38% | TGI ([30]; HL-60(TB), CCRF-CEM, MOLT-4, K-562, SR, RPMI-8226, HCC-2998, HCT-15, HCT-116, KM12, U250, M14, UACC-257, OVCAR-8, SN12C, 786-0, T-47D, BT-549): more than 100 µM | Full panel MG-MID ([30]; mean graph midpoint based on GI50, full NCI 59 cell panel): 20.45 µM | GI50 [31]: 12.7 µM | CC50 ([31]; read-out: LC50): > 100 µM
